From patent US12258328B2, “6-membered heteroaryl-containing aminopyridine compounds as EGFR inhibitors” (YUHAN CORPORATION, priority 2021, dated 2025)
Where two headings read alike, the source gives them in different places.

Columns and labels:
[1] = target: EGFR wildtype (Homo sapiens, UniProt P00533); experiment: Biochemical EGFR kinase assay (Lance Ultra TR-FRET), wildtype
In short: (§1)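 In this biochemical assay, phosphorylation after a one-hour room-temperature reaction was detected with europium-labelled anti-phosphopeptide antibody at 2 nM final concentration.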

[2] = target: EGFR del19/C797S (Homo sapiens, UniProt P00533, C797S/DEL746-750); experiment: Biochemical EGFR kinase assay (Lance Ultra TR-FRET), double mutant del19/C797S
In short: as §1

[3] = target: EGFR del19/T790M/C797S (Homo sapiens, UniProt P00533, C797S/DEL746-750/T790M); experiment: Biochemical EGFR kinase assay (Lance Ultra TR-FRET), triple mutant del19/T790M/C797S
In short: as §1

[4] = target: EGFR L858R/C797S (Homo sapiens, UniProt P00533, C797S/L858R); experiment: Biochemical EGFR kinase assay (Lance Ultra TR-FRET), double mutant L858R/C797S
In short: as §1

[5] = target: EGFR L858R/T790M/C797S (Homo sapiens, UniProt P00533, C797S/L858R/T790M); experiment: Biochemical EGFR kinase assay (Lance Ultra TR-FRET), triple mutant L858R/T790M/C797S
In short: as §1

[6] = ATP at Km, read-out: IC50 WT, Km ATP
[7] = ATP at Km, read-out: IC50 del19/C797S, Km ATP
[8] = ATP at Km, read-out: IC50 del19/T790M/C797S, Km ATP
[9] = IC50 del19/T790M/C797S, 100 μM ATP
[10] = ATP at Km, read-out: IC50 L858R/C797S, Km ATP
[11] = ATP at Km, read-out: IC50 L858R/T790M/C797S, Km ATP
[12] = IC50 L858R/T790M/C797S, 100 μM ATP
[13] = IC50 WT (nM) 100 μM ATP, 100 μM ATP
[14] = Km ATP, read-out: IC50 WT (nM) Km ATP
[15] = IC50 del19/C797S (nM) 100 μM ATP, 100 μM ATP
[16] = Km ATP, read-out: IC50 del19/C797S (nM) Km ATP
[17] = IC50 del19/T790M/C797S (nM) 100 μM ATP, 100 μM ATP
[18] = Km ATP, read-out: IC50 del19/T790M/C797S (nM) Km ATP
[19] = IC50 L858R/C797S (nM) 100 μM ATP, 100 μM ATP
[20] = Km ATP, read-out: IC50 L858R/C797S (nM) Km ATP
[21] = IC50 L858R/T790M/C797S (nM) 100 μM ATP, 100 μM ATP
[22] = Km ATP, read-out: IC50 L858R/T790M/C797S (nM) Km ATP

Chain of EGFR del19/T790M/C797S (P00533 with tags, fused parts or gaps DEL746-750/T790M/C797S): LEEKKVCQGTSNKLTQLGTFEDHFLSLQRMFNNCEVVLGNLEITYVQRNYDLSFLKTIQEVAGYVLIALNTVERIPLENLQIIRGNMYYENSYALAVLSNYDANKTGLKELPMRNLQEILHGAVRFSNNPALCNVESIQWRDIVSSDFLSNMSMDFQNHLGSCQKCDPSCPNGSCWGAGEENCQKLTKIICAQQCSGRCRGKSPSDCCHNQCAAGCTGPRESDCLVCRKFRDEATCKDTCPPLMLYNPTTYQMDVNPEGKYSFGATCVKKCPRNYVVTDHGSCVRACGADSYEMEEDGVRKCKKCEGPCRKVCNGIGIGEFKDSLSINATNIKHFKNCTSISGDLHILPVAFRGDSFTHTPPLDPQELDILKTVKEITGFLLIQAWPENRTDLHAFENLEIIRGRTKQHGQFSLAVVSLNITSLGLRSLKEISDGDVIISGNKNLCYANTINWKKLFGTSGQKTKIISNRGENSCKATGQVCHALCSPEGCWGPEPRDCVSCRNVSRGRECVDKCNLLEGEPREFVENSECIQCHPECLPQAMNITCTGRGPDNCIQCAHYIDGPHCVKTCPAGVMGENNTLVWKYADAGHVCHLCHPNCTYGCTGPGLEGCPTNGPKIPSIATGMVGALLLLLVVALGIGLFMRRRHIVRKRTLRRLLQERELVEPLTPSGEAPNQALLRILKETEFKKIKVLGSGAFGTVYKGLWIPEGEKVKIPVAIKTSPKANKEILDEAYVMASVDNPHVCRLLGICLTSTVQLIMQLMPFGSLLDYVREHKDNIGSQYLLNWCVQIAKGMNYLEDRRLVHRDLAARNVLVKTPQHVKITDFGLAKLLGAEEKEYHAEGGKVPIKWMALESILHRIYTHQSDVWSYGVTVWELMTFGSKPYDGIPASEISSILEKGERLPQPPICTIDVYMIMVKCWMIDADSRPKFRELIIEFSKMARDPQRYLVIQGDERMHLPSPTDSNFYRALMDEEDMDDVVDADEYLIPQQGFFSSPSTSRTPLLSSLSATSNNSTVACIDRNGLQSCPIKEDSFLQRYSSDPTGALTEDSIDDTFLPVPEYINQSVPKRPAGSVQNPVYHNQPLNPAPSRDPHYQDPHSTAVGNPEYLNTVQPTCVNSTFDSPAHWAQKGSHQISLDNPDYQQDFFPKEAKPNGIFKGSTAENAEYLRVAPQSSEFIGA
Chain of EGFR L858R/T790M/C797S (P00533 25-1210 T790M/C797S/L858R): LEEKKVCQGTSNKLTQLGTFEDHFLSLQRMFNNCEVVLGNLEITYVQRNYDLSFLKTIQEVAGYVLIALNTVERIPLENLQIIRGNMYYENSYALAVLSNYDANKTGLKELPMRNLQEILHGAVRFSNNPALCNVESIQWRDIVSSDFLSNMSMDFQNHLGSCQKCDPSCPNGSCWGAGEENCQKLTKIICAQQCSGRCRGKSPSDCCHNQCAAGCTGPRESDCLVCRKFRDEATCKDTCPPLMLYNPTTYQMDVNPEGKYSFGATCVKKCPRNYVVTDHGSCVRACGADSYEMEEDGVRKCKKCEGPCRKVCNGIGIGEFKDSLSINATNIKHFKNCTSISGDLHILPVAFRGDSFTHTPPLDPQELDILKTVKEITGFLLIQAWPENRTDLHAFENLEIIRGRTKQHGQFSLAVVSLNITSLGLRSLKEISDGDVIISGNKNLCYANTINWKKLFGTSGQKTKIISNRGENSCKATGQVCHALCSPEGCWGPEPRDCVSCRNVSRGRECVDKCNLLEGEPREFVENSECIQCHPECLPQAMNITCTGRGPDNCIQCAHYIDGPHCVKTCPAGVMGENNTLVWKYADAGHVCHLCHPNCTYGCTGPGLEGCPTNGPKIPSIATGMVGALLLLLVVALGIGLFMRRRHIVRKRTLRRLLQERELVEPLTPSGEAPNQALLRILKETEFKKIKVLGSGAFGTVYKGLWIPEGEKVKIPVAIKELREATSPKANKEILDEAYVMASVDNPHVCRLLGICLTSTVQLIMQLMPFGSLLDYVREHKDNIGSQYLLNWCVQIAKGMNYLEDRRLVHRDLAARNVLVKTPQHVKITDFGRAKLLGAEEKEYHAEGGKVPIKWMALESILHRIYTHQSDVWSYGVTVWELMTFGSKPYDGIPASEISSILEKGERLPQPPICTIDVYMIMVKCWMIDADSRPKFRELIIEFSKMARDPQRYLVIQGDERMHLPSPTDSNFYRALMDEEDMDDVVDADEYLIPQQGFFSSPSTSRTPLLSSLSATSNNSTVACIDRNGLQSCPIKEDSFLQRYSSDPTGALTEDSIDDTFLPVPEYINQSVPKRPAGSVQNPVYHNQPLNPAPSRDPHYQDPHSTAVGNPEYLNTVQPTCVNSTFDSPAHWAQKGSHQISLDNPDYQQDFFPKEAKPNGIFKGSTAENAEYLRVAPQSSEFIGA
Chain of EGFR del19/C797S (P00533 with tags, fused parts or gaps DEL746-750/C797S): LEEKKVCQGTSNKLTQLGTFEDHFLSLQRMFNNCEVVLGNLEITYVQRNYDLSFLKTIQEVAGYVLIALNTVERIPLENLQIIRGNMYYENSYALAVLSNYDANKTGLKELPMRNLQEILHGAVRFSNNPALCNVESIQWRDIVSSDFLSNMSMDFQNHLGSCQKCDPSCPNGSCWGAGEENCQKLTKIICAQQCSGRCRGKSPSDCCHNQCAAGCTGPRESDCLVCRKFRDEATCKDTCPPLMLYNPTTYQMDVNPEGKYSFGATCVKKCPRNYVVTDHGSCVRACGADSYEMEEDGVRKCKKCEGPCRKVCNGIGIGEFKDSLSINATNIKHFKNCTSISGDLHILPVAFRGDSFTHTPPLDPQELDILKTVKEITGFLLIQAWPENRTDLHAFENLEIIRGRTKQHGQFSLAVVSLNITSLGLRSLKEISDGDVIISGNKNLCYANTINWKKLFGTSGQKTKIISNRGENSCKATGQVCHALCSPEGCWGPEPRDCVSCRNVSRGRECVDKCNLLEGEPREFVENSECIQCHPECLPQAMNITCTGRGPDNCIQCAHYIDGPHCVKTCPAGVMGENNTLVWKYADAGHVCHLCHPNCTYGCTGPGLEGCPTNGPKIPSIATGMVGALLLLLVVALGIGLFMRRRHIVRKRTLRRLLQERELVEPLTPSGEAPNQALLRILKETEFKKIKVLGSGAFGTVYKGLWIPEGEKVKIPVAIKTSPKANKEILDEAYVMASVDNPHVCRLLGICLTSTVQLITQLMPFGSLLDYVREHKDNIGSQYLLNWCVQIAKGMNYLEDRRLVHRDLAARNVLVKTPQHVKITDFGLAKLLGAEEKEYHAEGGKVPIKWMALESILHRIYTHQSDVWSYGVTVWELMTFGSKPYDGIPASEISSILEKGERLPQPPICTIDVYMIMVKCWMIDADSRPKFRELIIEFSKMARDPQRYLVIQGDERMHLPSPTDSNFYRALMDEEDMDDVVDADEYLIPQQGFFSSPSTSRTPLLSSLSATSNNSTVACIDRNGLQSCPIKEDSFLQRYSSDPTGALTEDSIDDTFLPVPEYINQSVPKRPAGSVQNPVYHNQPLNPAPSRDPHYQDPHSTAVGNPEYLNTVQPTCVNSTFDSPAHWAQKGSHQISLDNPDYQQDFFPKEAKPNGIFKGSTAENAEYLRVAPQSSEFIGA
Chain of EGFR wildtype (P00533 25-1210): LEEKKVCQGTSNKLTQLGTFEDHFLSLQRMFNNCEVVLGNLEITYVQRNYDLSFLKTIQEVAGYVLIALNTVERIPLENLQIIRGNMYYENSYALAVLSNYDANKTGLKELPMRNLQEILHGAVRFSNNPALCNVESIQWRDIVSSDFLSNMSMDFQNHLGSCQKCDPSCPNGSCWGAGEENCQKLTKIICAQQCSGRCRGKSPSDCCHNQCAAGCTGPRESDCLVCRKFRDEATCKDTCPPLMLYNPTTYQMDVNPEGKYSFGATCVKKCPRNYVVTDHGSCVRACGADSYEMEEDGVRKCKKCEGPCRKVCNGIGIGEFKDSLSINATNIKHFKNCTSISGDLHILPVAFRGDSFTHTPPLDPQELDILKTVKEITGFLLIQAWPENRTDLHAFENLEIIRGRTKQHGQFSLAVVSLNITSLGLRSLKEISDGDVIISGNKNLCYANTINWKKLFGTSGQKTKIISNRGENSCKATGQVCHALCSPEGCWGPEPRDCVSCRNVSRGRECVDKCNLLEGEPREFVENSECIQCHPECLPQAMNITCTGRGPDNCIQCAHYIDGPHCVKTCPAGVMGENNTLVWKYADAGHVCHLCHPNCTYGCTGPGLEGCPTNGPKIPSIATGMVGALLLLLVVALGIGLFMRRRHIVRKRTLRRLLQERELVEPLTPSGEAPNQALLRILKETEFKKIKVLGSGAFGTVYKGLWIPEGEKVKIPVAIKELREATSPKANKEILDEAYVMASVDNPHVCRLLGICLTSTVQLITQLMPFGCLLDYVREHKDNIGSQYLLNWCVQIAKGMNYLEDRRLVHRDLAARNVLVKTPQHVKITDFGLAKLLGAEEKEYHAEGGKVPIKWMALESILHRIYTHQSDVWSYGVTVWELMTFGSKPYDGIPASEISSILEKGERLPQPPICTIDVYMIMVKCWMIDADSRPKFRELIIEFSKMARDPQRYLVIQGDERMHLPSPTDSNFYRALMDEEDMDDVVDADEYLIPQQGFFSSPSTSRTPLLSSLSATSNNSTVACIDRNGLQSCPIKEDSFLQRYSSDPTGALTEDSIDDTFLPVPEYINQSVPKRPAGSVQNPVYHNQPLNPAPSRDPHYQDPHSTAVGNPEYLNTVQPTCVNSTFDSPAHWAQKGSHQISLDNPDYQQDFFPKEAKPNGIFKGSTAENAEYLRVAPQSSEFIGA

CN1CCN(C(=O)c2ccc(-c3cnc(Nc4ccnc(-c5cnn(S(=O)(=O)C6CC6)c5)n4)cc3N[C@H]3CC[C@@H](C(C)(C)O)CC3)nc2)CC1 [Example 203, (6′-((2-(1-(Cyclopropylsulfonyl)-1H-pyrazol-4-yl)pyrimidin-4-yl)amino)-4′-(((1s,4s)-4-(2-hydroxypropan-2-yl)cyclohexyl)amino)-[2,3′-bipyridin]-5-yl)(4-methylpiperazin-1-yl)methanone]
IC50 [1, 6]: 0.3 nM
IC50 ([1]; IC50 WT, 100 μM ATP): 395 nM
IC50 [2, 7]: 0.1 nM
IC50 ([2]; IC50 del19/C797S, 100 μM ATP): 0.3 nM
IC50 [3, 8]: 0.4 nM
IC50 [3, 9]: 0.7 nM
IC50 [4, 10]: 0.1 nM
IC50 ([4]; IC50 L858R/C797S, 100 μM ATP): 0.8 nM
IC50 [5, 11]: 0.2 nM
IC50 [5, 12]: 0.3 nM

CN1CCN(S(=O)(=O)c2ccc(-c3cnc(Nc4ccnc(-c5cnn(S(=O)(=O)C6CC6)c5)n4)cc3N[C@H]3CC[C@@](C)(O)CC3)nc2)CC1 [Example 188, (1s,4s)-4-((6′-((2-(1-(Cyclopropylsulfonyl)-1H-pyrazol-4-yl)pyrimidin-4-yl)amino)-5-((4-methylpiperazin-1-yl)sulfonyl)-[2,3′-bipyridin]-4′-yl)amino)-1-methylcyclohexan-1-ol]
IC50 [1, 6]: 9.5 nM
IC50 ([1]; IC50 WT, 100 μM ATP): > 10000 nM
IC50 [2, 7]: 2.3 nM
IC50 ([2]; IC50 del19/C797S, 100 μM ATP): 1.8 nM
IC50 [3, 9]: 1.1 nM
IC50 [4, 10]: 0.8 nM
IC50 ([4]; IC50 L858R/C797S, 100 μM ATP): 11.3 nM
IC50 [5, 12]: 1 nM

CN1CCN(c2ccc(-c3cnc(Nc4ccnc(-c5cnn(S(=O)(=O)C6CC6)c5)n4)cc3N[C@H]3CC[C@@H](CO)CC3)nc2)CC1 [Example 85, ((1s,4s)-4-((6′-((2-(1-(cyclopropylsulfonyl)-1H-pyrazol-4-yl)pyrimidin-4-yl)amino)-5-(4-methylpiperazin-1-yl)-[2,3′-bipyridin]-4′-yl)amino)cyclohexyl)methanol]
IC50 [1, 13]: 31.7 nM
IC50 [1, 14]: 0.2 nM
IC50 [2, 15]: 0.3 nM
IC50 [2, 16]: 0.1 nM
IC50 [3, 17]: 0.4 nM
IC50 [3, 18]: 0.4 nM
IC50 [4, 19]: 0.2 nM
IC50 [4, 20]: 0.1 nM
IC50 [5, 21]: 0.3 nM
IC50 [5, 22]: 0.1 nM

C[C@]1(O)CC[C@@H](Nc2cc(Nc3ccnc(-c4cnn(S(=O)(=O)C5CC5)c4)n3)ncc2-c2cccc(CO)n2)CC1 [Example 27, (1s,4s)-4-((6′-((2-(1-(Cyclopropylsulfonyl)-1H-pyrazol-4-yl)pyrimidin-4-yl)amino)-6-(hydroxymethyl)-[2,3′-bipyridin]-4′-yl)amino)-1-methylcyclohexan-1-ol]
IC50 [1, 13]: 370 nM
IC50 [1, 14]: 1.7 nM
IC50 [2, 15]: 0.3 nM
IC50 [2, 16]: 0.1 nM
IC50 [3, 17]: 0.3 nM
IC50 [3, 18]: 0.3 nM
IC50 [4, 19]: 1.6 nM
IC50 [4, 20]: 0.1 nM
IC50 [5, 21]: 0.4 nM
IC50 [5, 22]: 0.2 nM

Cc1ccnc(-c2cnc(Nc3ccnc(-c4cnn(S(=O)(=O)C5CC5)c4)n3)cc2N[C@H]2CC[C@@](C)(O)CC2)c1 [Example 12, (1s,4s)-4-((6′-((2-(1-(Cyclopropylsulfonyl)-1H-pyrazol-4-yl)pyrimidin-4-yl)amino)-4-methyl-[2,3′-bipyridin]-4′-yl)amino)-1-methylcyclohexan-1-ol]
IC50 [1, 13]: 2690 nM
IC50 [1, 14]: 3.6 nM
IC50 [2, 15]: 1 nM
IC50 [2, 16]: 0.4 nM
IC50 [3, 17]: 0.4 nM
IC50 [4, 19]: 11.5 nM
IC50 [5, 21]: 0.6 nM
IC50 [5, 22]: 0.2 nM

O=S(=O)(C1CC1)n1cc(-c2nccc(Nc3cc(N[C@H]4CC[C@@H](CCO)CC4)c(-c4ccc(C(F)F)cn4)cn3)n2)cn1 [Example 94, 2-((1s,4s)-4-((6′-((2-(1-(Cyclopropylsulfonyl)-1H-pyrazol-4-yl)pyrimidin-4-yl)amino)-5-(difluoromethyl)-[2,3′-bipyridin]-4′-yl)amino)cyclohexyl)ethan-1-ol]
IC50 [1, 13]: > 10000 nM
IC50 [1, 14]: 7.2 nM
IC50 [2, 15]: 13.3 nM
IC50 [2, 16]: 3.9 nM
IC50 [3, 17]: 4.4 nM
IC50 [3, 18]: 2.7 nM
IC50 [4, 19]: 170 nM
IC50 [4, 20]: 6 nM
IC50 [5, 22]: 0.9 nM

CN(C)CCOc1ccc(-c2cnc(Nc3ccnc(-c4cnn(S(=O)(=O)C5CC5)c4)n3)cc2N[C@H]2CC[C@@H](CO)CC2)nc1 [Example 209, ((1s,4s)-4-((6′-((2-(1-(Cyclopropylsulfonyl)-1H-pyrazol-4-yl)pyrimidin-4-yl)amino)-5-(2-(dimethylamino)ethoxy)-[2,3′-bipyridin]-4′-yl)amino)cyclohexyl)methanol]
IC50 [1, 6]: 0.2 nM
IC50 ([1]; IC50 WT, 100 μM ATP): 99.2 nM
IC50 [2, 7]: 0.1 nM
IC50 ([2]; IC50 del19/C797S, 100 μM ATP): 0.3 nM
IC50 [3, 8]: 0.1 nM
IC50 [3, 9]: 0.2 nM
IC50 [4, 10]: 0.1 nM
IC50 ([4]; IC50 L858R/C797S, 100 μM ATP): 0.6 nM
IC50 [5, 11]: 0.1 nM
IC50 [5, 12]: 0.2 nM

CC(C)(O)c1ccc(-c2cnc(Nc3ccnc(-c4cnn(S(=O)(=O)C5CC5)c4)n3)cc2N[C@H]2CC[C@@](C)(O)CC2)nn1 [Example 86, (1s,4s)-4-((2-((2-(1-(Cyclopropylsulfonyl)-1H-pyrazol-4-yl)pyrimidin-4-yl)amino)-5-(6-(2-hydroxypropan-2-yl)pyridazin-3-yl)pyridin-4-yl)amino)-1-methylcyclohexan-1-ol]
IC50 [1, 13]: 1480 nM
IC50 [1, 14]: 3.6 nM
IC50 [2, 15]: 0.4 nM
IC50 [2, 16]: 0.3 nM
IC50 [3, 17]: 1.6 nM
IC50 [3, 18]: 0.2 nM
IC50 [4, 19]: 11.4 nM
IC50 [4, 20]: 0.4 nM
IC50 [5, 21]: 0.2 nM
IC50 [5, 22]: 0.1 nM

CC(C)(O)c1cnc(-c2cnc(Nc3ccnc(-c4cnn(S(=O)(=O)C5CC5)c4)n3)cc2N[C@H]2CC[C@@H](C(C)(C)O)CC2)cn1 [Example 120, 2-(5-(6-((2-(1-(Cyclopropylsulfonyl)-1H-pyrazol-4-yl)pyrimidin-4-yl)amino)-4-(((1s,4s)-4-(2-hydroxypropan-2-yl)cyclohexyl)amino)pyridin-3-yl)pyrazin-2-yl)propan-2-ol]
IC50 [1, 13]: 968 nM
IC50 [1, 14]: 4.3 nM
IC50 [2, 15]: 0.7 nM
IC50 [2, 16]: 0.5 nM
IC50 [3, 17]: 0.2 nM
IC50 [3, 18]: 0.2 nM
IC50 [4, 20]: 0.1 nM
IC50 [5, 21]: 0.4 nM
IC50 [5, 22]: 0.1 nM

CC(C)(O)C1CCC(Nc2cc(Nc3ccnc(-c4cnn(S(=O)(=O)C5CC5)c4)n3)ncc2-c2ccc(C(O)C(F)(F)F)cn2)CC1 (stereo not drawn) [Example 229, 2-((1s,4s)-4-((6′-((2-(1-(Cyclopropylsulfonyl)-1H-pyrazol-4-yl)pyrimidin-4-yl)amino)-5-(2,2,2-trifluoro-1-hydroxyethyl)-[2,3′-bipyridin]-4′-yl)amino)cyclohexyl)propan-2-ol]
IC50 [1, 6]: 17.4 nM
IC50 ([1]; IC50 WT, 100 μM ATP): 9480 nM
IC50 [2, 7]: 4.8 nM
IC50 ([2]; IC50 del19/C797S, 100 μM ATP): 20.8 nM
IC50 [3, 8]: 3.3 nM
IC50 [3, 9]: 4.4 nM
IC50 [4, 10]: 11.5 nM
IC50 ([4]; IC50 L858R/C797S, 100 μM ATP): 96.1 nM
IC50 [5, 11]: 0.9 nM
IC50 [5, 12]: 1.9 nM

CC(C)Nc1cc(Nc2ccnc(-c3cnn(S(=O)(=O)C4CC4)c3)n2)ncc1-c1ccc(CN2CCOCC2)cn1 [Example 125, N^6′-(2-(1-(Cyclopropylsulfonyl)-1H-pyrazol-4-yl)pyrimidin-4-yl)-N^4′-isopropyl-5-(morpholinomethyl)-[2,3′-bipyridine]-4′,6′-diamine]
IC50 [1, 14]: 44.8 nM
IC50 [2, 16]: 8.9 nM
IC50 [3, 18]: 0.7 nM
IC50 [4, 20]: 12.1 nM
IC50 [5, 22]: 0.3 nM

CC(C)(O)[C@H]1CC[C@@H](Nc2cc(Nc3ccnc(-c4cnn(S(=O)(=O)C5CC5)c4)n3)ncc2-c2cccc(F)n2)CC1 [Example 163, 2-((1s,4s)-4-((6′-((2-(1-(Cyclopropylsulfonyl)-1H-pyrazol-4-yl)pyrimidin-4-yl)amino)-6-fluoro-[2,3′-bipyridin]-4′-yl)amino)cyclohexyl)propan-2-ol]
IC50 [1, 6]: 18.7 nM
IC50 ([1]; IC50 WT, 100 μM ATP): > 10000 nM
IC50 [2, 7]: 2.6 nM
IC50 ([2]; IC50 del19/C797S, 100 μM ATP): 3.1 nM
IC50 [3, 9]: 2.6 nM
IC50 [4, 10]: 13 nM
IC50 ([4]; IC50 L858R/C797S, 100 μM ATP): 49.4 nM
IC50 [5, 11]: 0.7 nM
IC50 [5, 12]: 2.3 nM
